Test results reported in patent US8999937B2, “Glucocorticoid induced leucine zipper mimetics as therapeutic agents in multiple sclerosis” (Indiana University Research and Technology Corporation, priority 2011, dated 2015).

Tested on: CD4+ LNC from PLP primed SJL/J mice
Assay: In vitro proliferation ([3H]-thymidine) of PLP139-151 restimulated CD4+ LNC from primed SJL/J mice
Assay type: cell-based, mouse
Conditions: with Pep-1, PLP 40 μg/ml, 72 h
Procedure: CD4+ lymph node cells (LNC) isolated from the draining lymph nodes harvested from SJL/J mice 10 days after immunization with PLP139-151 were cultured in 96-well plates at […] in complete RPMI and restimulated with the PLP peptide (40 μg/ml) for 72 h, including a final 16-h pulse with [^3H]-thymidine. […] Separate cultures stimulated with ova (40 μg/ml) served as control for antigen specificity. Irradiated splenocytes from syngenic mice were used as antigen presenting cells (APC). Cultures were harvested onto glass fiber mats using a Skatron harvester (Skatron, Sterling, Va.), and the levels of [^3H]-thymidine incorporation were determined by liquid scintillation counting (Microbeta; Wallac, Turku, Finland). Results were confirmed by replicate experiments. Data are expressed as Δcpm (counts/min incorporated in antigen-stimulated culture-counts/min incorporated by control unstimulated culture).
Supernatants collected at 24 and 48 h were assessed for specific cytokines using the OptEIA kits (BD Biosciences). Proliferation assays included parallel cultures for 72 h with a final 18-h pulse with [^3H]thymidine measured by liquid scintillation counting (Microbeta, Turku, Finland).

## C[C@@H]1C[C@H]2[C@@H]3CCC4=CC(=O)C=C[C@]4(C)[C@@]3(F)[C@@H](O)C[C@]2(C)[C@@]1(O)C(=O)CO [dexamethasone, reference compound]
  proliferative response (Δcpm): 2226+/−327 cpm
